Results taken from paper PMC5218480 (PLoS ONE, 2017).

Tested on: MV-4-11 cells
Experiment: Gene expression microarray analysis (Affymetrix PrimeView) and GSEA
Type: cell-based, human
Parameters: RFU PODN (11730768_x_at) / Fold change /veh PODN (11730768_x_at) / RFU LINC00158 (11744669_a_at) / Fold change /veh LINC00158 (11744669_a_at) / RFU DUSP10 (11751237_a_at) / Fold change /veh DUSP10 (11751237_a_at) / RFU ID3 (11757404_x_at) / Fold change /veh ID3 (11757404_x_at) / RFU PLEKHG5 (11737974_s_at) / Fold change /veh PLEKHG5 (11737974_s_at) / RFU LRRC4B (11730491_at) / Fold change /veh LRRC4B (11730491_at) / RFU GIMAP4 (11747438_a_at) / Fold change /veh GIMAP4 (11747438_a_at) / RFU KRT8 (11758183_x_at) / Fold change /veh KRT8 (11758183_x_at) / RFU CNN1 (11734310_a_at) / Fold change /veh CNN1 (11734310_a_at) / RFU VPS37D (11726825_at) / Fold change /veh VPS37D (11726825_at) / RFU C10orf10 (11716522_x_at) / Fold change /veh C10orf10 (11716522_x_at) / RFU KIR2DL2 /// KIR2DL4 /// KIR2DL5A /// KIR2DL5B /// KIR2DS1 /// KIR2DS2 /// KIR2DS3 /// KIR2DS4 /// KIR3DL3 /// KIR3DL3 /// KIR3DS1 (11738374_at) / Fold change /veh KIR2DL2 /// KIR2DL4 /// KIR2DL5A /// KIR2DL5B /// KIR2DS1 /// KIR2DS2 /// KIR2DS3 /// KIR2DS4 /// KIR3DL3 /// KIR3DL3 /// KIR3DS1 (11738374_at) / RFU C1QL1 (11718748_at) / Fold change /veh C1QL1 (11718748_at) / RFU TMPRSS4 (11747572_a_at) / Fold change /veh TMPRSS4 (11747572_a_at) / RFU HAMP (11756126_x_at) / Fold change /veh HAMP (11756126_x_at) / RFU RNFT2 (11725882_a_at) / Fold change /veh RNFT2 (11725882_a_at) / RFU NR4A2 (11747474_a_at) / Fold change /veh NR4A2 (11747474_a_at) / RFU ABCC12 (11746883_a_at) / Fold change /veh ABCC12 (11746883_a_at) / RFU TMEM136 (11760407_x_at) / Fold change /veh TMEM136 (11760407_x_at) / RFU CLDN22 /// WWC2 (11732394_at) / Fold change /veh CLDN22 /// WWC2 (11732394_at) / RFU HLA-DPB1 (11760878_x_at) / Fold change /veh HLA-DPB1 (11760878_x_at) / RFU SPINT1 (11716480_a_at) / Fold change /veh SPINT1 (11716480_a_at) / RFU GAP43 (11754022_s_at) / Fold change /veh GAP43 (11754022_s_at) / RFU A4GNT (11735810_at) / Fold change /veh A4GNT (11735810_at) / RFU PRB3 (11715151_x_at) / Fold change /veh PRB3 (11715151_x_at) / RFU TUBB4B (11761932_at) / Fold change /veh TUBB4B (11761932_at) / RFU CAPN14 (11732068_a_at) / Fold change /veh CAPN14 (11732068_a_at) / RFU TMCC2 (11721928_a_at) / Fold change /veh TMCC2 (11721928_a_at) / RFU IRGQ (11745062_a_at) / Fold change /veh IRGQ (11745062_a_at) / RFU FAM174B (11720279_a_at) / Fold change /veh FAM174B (11720279_a_at) / RFU TMPRSS4 (11748680_a_at) / Fold change /veh TMPRSS4 (11748680_a_at) / RFU FAM212B (11763350_a_at) / Fold change /veh FAM212B (11763350_a_at) / RFU PLEKHG5 (11743358_a_at) / Fold change /veh PLEKHG5 (11743358_a_at) / RFU ZSCAN30 (11745921_a_at) / Fold change /veh ZSCAN30 (11745921_a_at) / RFU CMKLR1 (11741424_a_at) / Fold change /veh CMKLR1 (11741424_a_at) / RFU LOC101060620 /// MAPK8IP1 (11723275_at) / Fold change /veh LOC101060620 /// MAPK8IP1 (11723275_at) / RFU SPTSSB (11747773_x_at) / Fold change /veh SPTSSB (11747773_x_at) / RFU PRSS12 (11739890_at) / Fold change /veh PRSS12 (11739890_at) / RFU BIN1 (11741810_x_at) / Fold change /veh BIN1 (11741810_x_at) / RFU WNT11 (11732464_a_at) / Fold change /veh WNT11 (11732464_a_at) / RFU C10orf10 (11716521_a_at) / Fold change /veh C10orf10 (11716521_a_at) / RFU C5orf56 (11738089_at) / Fold change /veh C5orf56 (11738089_at) / RFU CYB561 (11721691_x_at) / Fold change /veh CYB561 (11721691_x_at) / RFU ANKRD19P (11752326_a_at) / Fold change /veh ANKRD19P (11752326_a_at) / RFU OR2T12 /// OR2T33 /// OR2T8 (11738714_s_at) / Fold change /veh OR2T12 /// OR2T33 /// OR2T8 (11738714_s_at) / RFU VCAN (11748164_a_at) / Fold change /veh VCAN (11748164_a_at) / RFU JSRP1 (11732532_at) / Fold change /veh JSRP1 (11732532_at) / RFU KRTAP10-11 (11738290_x_at) / Fold change /veh KRTAP10-11 (11738290_x_at) / RFU MYO3A (11730013_a_at) / Fold change /veh MYO3A (11730013_a_at) / RFU EBF3 (11725865_a_at) / Fold change /veh EBF3 (11725865_a_at) / RFU CAMK2N1 (11719241_x_at) / Fold change /veh CAMK2N1 (11719241_x_at) / RFU C5orf56 (11738088_a_at) / Fold change /veh C5orf56 (11738088_a_at) / RFU OLFML3 (11715873_a_at) / Fold change /veh OLFML3 (11715873_a_at) / RFU LOC100653217 /// NTM (11731650_a_at) / Fold change /veh LOC100653217 /// NTM (11731650_a_at) / RFU MAPK11 (11762145_a_at) / Fold change /veh MAPK11 (11762145_a_at) / RFU FIZ1 (11724087_x_at) / Fold change /veh FIZ1 (11724087_x_at) / RFU OASL (11726364_x_at) / Fold change /veh OASL (11726364_x_at) / RFU SOX15 (11748057_x_at) / Fold change /veh SOX15 (11748057_x_at) / RFU CD79A (11719716_a_at) / Fold change /veh CD79A (11719716_a_at) / RFU HIST1H1D (11736915_at) / Fold change /veh HIST1H1D (11736915_at) / RFU CASKIN2 (11723855_a_at) / Fold change /veh CASKIN2 (11723855_a_at) / RFU LOC730098 (11760151_x_at) / Fold change /veh LOC730098 (11760151_x_at) / RFU OR4N2 (11742367_at) / Fold change /veh OR4N2 (11742367_at) / RFU PRRT2 (11749266_a_at) / Fold change /veh PRRT2 (11749266_a_at) / RFU SNX32 (11753110_a_at) / Fold change /veh SNX32 (11753110_a_at) / RFU CDHR5 (11726645_a_at) / Fold change /veh CDHR5 (11726645_a_at) / RFU RCAN1 (11760418_a_at) / Fold change /veh RCAN1 (11760418_a_at) / RFU FAM167A (11723789_a_at) / Fold change /veh FAM167A (11723789_a_at) / RFU FAM26E (11764081_at) / Fold change /veh FAM26E (11764081_at) / RFU ISYNA1 (11749810_s_at) / Fold change /veh ISYNA1 (11749810_s_at) / RFU ACY1 (11761880_at) / Fold change /veh ACY1 (11761880_at) / RFU 11764098_at / Fold change /veh 11764098_at / RFU SAMD14 (11745864_x_at) / Fold change /veh SAMD14 (11745864_x_at) / RFU NPB (11741838_a_at) / Fold change /veh NPB (11741838_a_at) / RFU TMPRSS6 (11731388_a_at) / Fold change /veh TMPRSS6 (11731388_a_at) / RFU KRTAP10-2 (11738614_at) / Fold change /veh KRTAP10-2 (11738614_at) / RFU ARHGAP8 /// PRR5-ARHGAP8 (11727945_x_at) / Fold change /veh ARHGAP8 /// PRR5-ARHGAP8 (11727945_x_at) / RFU KRTAP5-7 /// NADSYN1 (11734609_at) / Fold change /veh KRTAP5-7 /// NADSYN1 (11734609_at) / RFU RASL12 (11751679_a_at) / Fold change /veh RASL12 (11751679_a_at) / RFU CDKN2B (11736163_a_at) / Fold change /veh CDKN2B (11736163_a_at) / RFU PRF1 (11729649_at) / Fold change /veh PRF1 (11729649_at) / RFU, ZNF638 /// ZNF638-IT1 / Fold change vs veh, ZNF638 /// ZNF638-IT1 / RFU, PANK3 / Fold change vs veh, PANK3 / RFU, SH3YL1 / Fold change vs veh, SH3YL1 / RFU, ZEB2 / Fold change vs veh, ZEB2 / RFU, NRIP1 / Fold change vs veh, NRIP1 / RFU, PTTG1IP / Fold change vs veh, PTTG1IP / RFU, CAPN2 / Fold change vs veh, CAPN2 / RFU, MED14 / Fold change vs veh, MED14 / RFU, SNORA58 / Fold change vs veh, SNORA58 / RFU, C1orf63 / Fold change vs veh, C1orf63 / RFU, LRRFIP1 / Fold change vs veh, LRRFIP1 / RFU, NDUFAF7 / Fold change vs veh, NDUFAF7 / RFU, SLC12A2 / Fold change vs veh, SLC12A2 / RFU, IBTK / Fold change vs veh, IBTK / RFU, ESF1 / Fold change vs veh, ESF1 / Fold change vs veh, TMEM50B / RFU, TAOK1 / Fold change vs veh, TAOK1 / RFU, ACBD3 / Fold change vs veh, ACBD3 / RFU, TMA16 / Fold change vs veh, TMA16 / RFU, RWDD3 / Fold change vs veh, RWDD3 / RFU, BCAT1 / Fold change vs veh, BCAT1 / RFU, EDEM3 / Fold change vs veh, EDEM3 / RFU, TMEM33 / Fold change vs veh, TMEM33 / RFU, WDR75 / Fold change vs veh, WDR75 / RFU, AHCTF1 / Fold change vs veh, AHCTF1 / RFU, TFRC / Fold change vs veh, TFRC / RFU, ZDHHC17 / Fold change vs veh, ZDHHC17 / RFU, NOM1 / Fold change vs veh, NOM1 / RFU, ARL8B / Fold change vs veh, ARL8B / RFU, ZBTB11 / Fold change vs veh, ZBTB11 / RFU, TAMM41 / Fold change vs veh, TAMM41 / RFU, KIAA1704 /// LOC100996395 / Fold change vs veh, KIAA1704 /// LOC100996395 / RFU, ING1 / Fold change vs veh, ING1 / RFU, TRMT61B / Fold change vs veh, TRMT61B / RFU, FUBP3 / Fold change vs veh, FUBP3 / RFU, TP53 / Fold change vs veh, TP53 / RFU, TNKS2 / Fold change vs veh, TNKS2 / RFU, ZFP14 / Fold change vs veh, ZFP14 / RFU, ACTR2 / Fold change vs veh, ACTR2 / RFU, PPP3R1 / Fold change vs veh, PPP3R1 / RFU, PIK3R1 / Fold change vs veh, PIK3R1 / RFU, HNRNPA1 / Fold change vs veh, HNRNPA1 / RFU, RNF170 / Fold change vs veh, RNF170 / RFU, ZNF28 / Fold change vs veh, ZNF28 / RFU, RNGTT / Fold change vs veh, RNGTT / RFU, OGT / Fold change vs veh, OGT / RFU, BRD1 / Fold change vs veh, BRD1 / RFU, MARS / Fold change vs veh, MARS / RFU, ZNF655 / Fold change vs veh, ZNF655 / RFU, FAHD1 / Fold change vs veh, FAHD1 / RFU, BDP1 / Fold change vs veh, BDP1 / RFU, LRRCC1 / Fold change vs veh, LRRCC1 / RFU, ARID1A / Fold change vs veh, ARID1A / RFU, ZNF146 / Fold change vs veh, ZNF146 / RFU, ZNF330 / Fold change vs veh, ZNF330 / RFU, GPN3 / Fold change vs veh, GPN3 / RFU, C9orf123 / Fold change vs veh, C9orf123 / RFU, N4BP2L2 / Fold change vs veh, N4BP2L2 / RFU, ARFIP1 / Fold change vs veh, ARFIP1 / RFU, FAM179B / Fold change vs veh, FAM179B / RFU, BCL10 / Fold change vs veh, BCL10 / RFU, UHRF1BP1L / Fold change vs veh, UHRF1BP1L / RFU, BET1 / Fold change vs veh, BET1 / RFU, CNOT2 / Fold change vs veh, CNOT2 / RFU, ZNF268 / Fold change vs veh, ZNF268 / Fold change vs veh, ZNF507 / RFU, DGCR2 / Fold change vs veh, DGCR2 / RFU, WDSUB1 / Fold change vs veh, WDSUB1 / Fold change vs veh, HSP90B1 /// MIR3652 / RFU, ADSS / Fold change vs veh, ADSS / RFU, GK / Fold change vs veh, GK / RFU, ZNF148 / Fold change vs veh, ZNF148 / RFU, TAF9 / Fold change vs veh, TAF9 / RFU, SLC1A5 / Fold change vs veh, SLC1A5 / RFU, SLMO2 / Fold change vs veh, SLMO2 / RFU, ABCC4 / Fold change vs veh, ABCC4 / RFU, LOC101060439 /// RAP1B / Fold change vs veh, LOC101060439 /// RAP1B / RFU, RFX7 / Fold change vs veh, RFX7 / RFU, GTPBP10 / Fold change vs veh, GTPBP10 / RFU, CNEP1R1 / Fold change vs veh, CNEP1R1 / RFU, BIVM-ERCC5 /// ERCC5 / Fold change vs veh, BIVM-ERCC5 /// ERCC5 / RFU, ILF3 / Fold change vs veh, ILF3 / RFU 11762660_at / Fold change /veh 11762660_at / RFU VCAN (11757783_s_at) / Fold change /veh VCAN (11757783_s_at) / RFU DDX43 (11728927_at) / Fold change /veh DDX43 (11728927_at) / RFU KRT8 (11758188_x_at) / Fold change /veh KRT8 (11758188_x_at) / RFU NKD1 (11759106_at) / Fold change /veh NKD1 (11759106_at) / RFU SRD5A1 (11742802_a_at) / Fold change /veh SRD5A1 (11742802_a_at) / RFU TPSAB1 /// TPSB2 (11721975_s_at) / Fold change /veh TPSAB1 /// TPSB2 (11721975_s_at) / RFU GSTM3 (11746129_a_at) / Fold change /veh GSTM3 (11746129_a_at) / RFU IL23R (11737362_x_at) / Fold change /veh IL23R (11737362_x_at) / RFU TMEM51 (11727254_a_at) / Fold change /veh TMEM51 (11727254_a_at) / RFU PIWIL2 (11732686_x_at) / Fold change /veh PIWIL2 (11732686_x_at) / RFU ORM1 (11744905_x_at) / Fold change /veh ORM1 (11744905_x_at) / RFU CCDC152 (11743942_at) / Fold change /veh CCDC152 (11743942_at) / RFU ECM1 (11717891_a_at) / Fold change /veh ECM1 (11717891_a_at) / RFU IL23R (11748794_a_at) / Fold change /veh IL23R (11748794_a_at) / RFU TNFAIP8L3 (11732012_x_at) / Fold change /veh TNFAIP8L3 (11732012_x_at) / RFU MBOAT4 (11741988_at) / Fold change /veh MBOAT4 (11741988_at) / RFU 11764193_at / Fold change /veh 11764193_at / RFU TMEM53 (11763286_at) / Fold change /veh TMEM53 (11763286_at) / RFU MAGEB2 (11727129_at) / Fold change /veh MAGEB2 (11727129_at) / RFU TMEM200A (11744735_a_at) / Fold change /veh TMEM200A (11744735_a_at) / RFU CCDC152 (11751479_a_at) / Fold change /veh CCDC152 (11751479_a_at) / RFU FAM211A (11726209_a_at) / Fold change /veh FAM211A (11726209_a_at) / RFU RGS16 (11746705_a_at) / Fold change /veh RGS16 (11746705_a_at) / RFU VCAN (11755009_s_at) / Fold change /veh VCAN (11755009_s_at) / RFU RHOB (11743442_s_at) / Fold change /veh RHOB (11743442_s_at) / RFU RGS16 (11720943_a_at) / Fold change /veh RGS16 (11720943_a_at) / RFU RGS16 (11720944_at) / Fold change /veh RGS16 (11720944_at) / RFU, VPS4B / Fold change vs veh, VPS4B / RFU, CREB1 / Fold change vs veh, CREB1 / RFU, DNAJC13 / Fold change vs veh, DNAJC13 / RFU, GNAQ / Fold change vs veh, GNAQ / RFU, CDK5R1 / Fold change vs veh, CDK5R1 / RFU, ZRANB3 / Fold change vs veh, ZRANB3 / RFU, CUL4A / Fold change vs veh, CUL4A / RFU, CCNY / Fold change vs veh, CCNY / RFU, UFL1 / Fold change vs veh, UFL1 / RFU, COG3 / Fold change vs veh, COG3 / RFU, DIAPH2 / Fold change vs veh, DIAPH2 / RFU, SKA2 / Fold change vs veh, SKA2 / RFU, AFF3 / Fold change vs veh, AFF3 / RFU, LMF1 / Fold change vs veh, LMF1 / RFU, IPO11 / Fold change vs veh, IPO11 / RFU, DFFB / Fold change vs veh, DFFB / RFU, FOXP1 / Fold change vs veh, FOXP1 / RFU, CARD8 / Fold change vs veh, CARD8 / RFU, STRN3 / Fold change vs veh, STRN3 / RFU, ADK / Fold change vs veh, ADK / RFU, RASSF2 / Fold change vs veh, RASSF2 / RFU, WIPF1 / Fold change vs veh, WIPF1 / RFU, LARP1B / Fold change vs veh, LARP1B / RFU, RASA1 / Fold change vs veh, RASA1 / RFU, RB1 / Fold change vs veh, RB1 / RFU, PPFIA1 / Fold change vs veh, PPFIA1 / RFU, MAT2A / Fold change vs veh, MAT2A / RFU, CCT5 / Fold change vs veh, CCT5 / RFU, WDR92 / Fold change vs veh, WDR92 / RFU, CUX1 / Fold change vs veh, CUX1 / RFU, TTC7A / Fold change vs veh, TTC7A / RFU, TMEM135 / Fold change vs veh, TMEM135 / RFU, DEPTOR / Fold change vs veh, DEPTOR / RFU, CPM / Fold change vs veh, CPM / RFU, DNAJB6 / Fold change vs veh, DNAJB6 / RFU, CACNA2D3 / Fold change vs veh, CACNA2D3 / RFU, DTX4 / Fold change vs veh, DTX4 / RFU, TFCP2 / Fold change vs veh, TFCP2 / RFU, GMCL1 /// GMCL1P1 / Fold change vs veh, GMCL1 /// GMCL1P1 / RFU, AEBP2 / Fold change vs veh, AEBP2 / RFU, SNHG1 /// SNORD22 /// SNORD25 /// SNORD26 /// SNORD27 /// SNORD28 /// SNORD29 /// SNORD31 / Fold change vs veh, SNHG1 /// SNORD22 /// SNORD25 /// SNORD26 /// SNORD27 /// SNORD28 /// SNORD29 /// SNORD31 / Fold change (Aza/veh), C12orf56 (ProbeSet 11735607_a_at) / Fold change (ACY-1035/veh), C12orf56 (ProbeSet 11735607_a_at) / Fold change (Aza/veh), FGFR1OP (ProbeSet 11751329_s_at) / Fold change (ACY-1035/veh), FGFR1OP (ProbeSet 11751329_s_at) / Fold change (Aza/veh), VPS36 (ProbeSet 11739960_a_at) / Fold change (ACY-1035/veh), VPS36 (ProbeSet 11739960_a_at) / RFU SYPL1 (11715823_x_at) / Fold change /veh SYPL1 (11715823_x_at) / RFU IGFBP7 (11715501_s_at) / Fold change /veh IGFBP7 (11715501_s_at) / RFU REEP3 (11722064_at) / Fold change /veh REEP3 (11722064_at) / RFU IGLL1 (11728026_x_at) / Fold change /veh IGLL1 (11728026_x_at): dose or concentration left out as unconfirmed
Details: ProbeSet 11732281_s_at; LIST D

SMILES: Nc1ncn([C@@H]2O[C@H](CO)[C@@H](O)[C@H]2O)c(=O)n1 [azacitidine]
- RFU, FOXP1: 174.32 RFU
